This is an account of results in publication PMC9607081 (Membranes, 2022).

Where a chain is given by its changes, count along the chain named. Where two headings read alike, the source gives them in different places.

Assay type in all cases: cell-based
In experiment [1] the target is T1, human GlyR α1 subunit P146 (CysL) substituted with Pro (Homo sapiens, UniProt P23415).
T1 construct: expressed in transfected cells; host or cells: Xenopus laevis oocytes injected with receptor mRNA
T1 sequence (P23415 29-457): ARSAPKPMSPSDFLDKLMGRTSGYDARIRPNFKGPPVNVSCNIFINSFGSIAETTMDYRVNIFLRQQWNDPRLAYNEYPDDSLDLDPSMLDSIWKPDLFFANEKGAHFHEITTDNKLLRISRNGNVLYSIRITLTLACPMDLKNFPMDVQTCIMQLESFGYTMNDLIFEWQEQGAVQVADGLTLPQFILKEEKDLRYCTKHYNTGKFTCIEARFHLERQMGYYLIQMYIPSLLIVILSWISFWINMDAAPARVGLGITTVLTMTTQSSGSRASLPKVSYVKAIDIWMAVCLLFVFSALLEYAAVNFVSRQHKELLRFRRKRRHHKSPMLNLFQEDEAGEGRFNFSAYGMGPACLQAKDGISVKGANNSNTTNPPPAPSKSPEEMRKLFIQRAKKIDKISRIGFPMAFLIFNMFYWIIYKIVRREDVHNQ
The experiment can be described thus: TEVC, oocytes, nonsense suppression, P146 Pro recovery. Conditions: for EC50: Table 3, nonsense suppression. The protocol: Injection volumes were 50–100 nL per cell. […] The holding potential was −60 mV unless otherwise specified.

Experiment [2] addresses T2, human GlyR α1 subunit P230A (Homo sapiens, UniProt P23415, P258A).
T2 construct: expressed in transfected cells; host or cells: Xenopus laevis oocytes injected with receptor mRNA
T2 sequence (P23415 29-457 P258A): T1 sequence (P23415 29-457) with P230A
The experiment can be described thus: Two-electrode voltage clamp of Xenopus oocytes expressing P230A GlyR. Conditions: for nH (Hill coefficient): Table 1, n = 5; for EC50: Table 1, −60 mV. As to the method:
(§1) Injection volumes were 50–100 nL per cell.
(§2) All experiments were performed at 22–25 °C. […] The holding potential was −60 mV unless otherwise specified.

In experiment [3] the target is T3, human GlyR α1 subunit P146 (CysL) substituted with Pip (Homo sapiens, UniProt P23415, P174X).
T3 sequence (P23415 29-457 P174X): T1 sequence (P23415 29-457) with P146X
The experiment can be described thus: TEVC, oocytes, nonsense suppression, P146 Pip. The settings on record: for EC50: n = 3. As to the method:
(§3) The cDNA for the human GlyR α1 subunit was in pGEMHE (ThermoFischer Scientific, Bishops Stortford, UK). Site-directed mutagenesis was performed using QuikChange (Agilent Technologies, Milton Keynes, UK) to generate the appropriate codon. For non-canonical amino acid mutants and conventional mutants generated by nonsense suppression, the site of interest was mutated to the TAG stop codon. Receptor mRNA was then prepared by in vitro runoff transcription using the Ambion T7 mMessage mMachine kit (ThermoFischer Scientific, Bishops Stortford, UK). Noncanonical amino acids were ligated to tRNA as previously described.
(§4) Stage V-VI oocytes of Xenopus laevis were harvested and injected with RNAs as described previously. For nonsense suppression experiments, each cell was injected with 50–100 ng each of receptor mRNA and tRNA charged with the appropriate Pro analogue ~48 h before recording. For wild type and conventional mutants, each cell received a single injection of 10–25 ng of receptor mRNA ~24 h before recording. Injection volumes were 50–100 nL per cell.
(§5) As a negative control for suppression experiments at each site, unligated tRNA was co-injected with mRNA in the same manner as charged tRNA. […] Pro recovery (injecting tRNA charged with Pro to regenerate a wild type channel via nonsense suppression) was used alongside Pro analogues as a positive control.
(§6) Two-electrode voltage clamping of Xenopus oocytes was performed using standard electrophysiological procedures as previously, using an OpusXpress system (Axon Instruments, Inc., Union City, CA, USA). All experiments were performed at 22–25 °C. […] The holding potential was −60 mV unless otherwise specified. […] Data were analysed using Prism (GraphPad Software Inc., San Diego, CA, USA), fitting concentration-response data to the four-parameter logistic equation. Statistical analysis was performed using ANOVA with a Dunnett’s multiple comparisons post test.

A further experiment deals with T4, human GlyR α1 subunit WT (Homo sapiens, UniProt P23415).
T4 construct: expressed in transfected cells; host or cells: Xenopus laevis oocytes injected with receptor mRNA
T4 sequence (P23415 29-457): T1 sequence (P23415 29-457)
Kind of experiment: Two-electrode voltage clamp of Xenopus oocytes expressing WT GlyR. Conditions: for nH (Hill coefficient): Table 1, n = 5; for EC50: Table 1, −60 mV; for % ImaxTau /ImaxGly: Tau maximal current relative to Gly maximal current. The protocol: as §1, §2
(In general: In two-electrode clamp one electrode senses voltage and the other passes current.)

Experiment [4] has as its target T5, human GlyR α1 subunit P146 (CysL) substituted with CFP (Homo sapiens, UniProt P23415, P174X).
T5 sequence (P23415 29-457 P174X): T1 sequence (P23415 29-457) with P146X
The experiment can be described thus: TEVC, oocytes, nonsense suppression, P146 CFP. The protocol: as §3, §4, §5, §6

Experiment [5] concerns the target T6, human GlyR α1 subunit P146 (CysL) substituted with 2MeP (Homo sapiens, UniProt P23415, P174X).
T6 sequence (P23415 29-457 P174X): T1 sequence (P23415 29-457) with P146X
Kind of experiment: TEVC, oocytes, nonsense suppression, P146 2MeP. The settings on record: for EC50: n = 3. As to the method: as §3, §4, §5, §6

Where [6] appears, read: n = 5, read-out: pEC50 (converted).
The mark [7] stands for this setting: EC50, Table 3, nonsense suppression.
[8] abbreviates: Table 3, n = 3, read-out: % ImaxTau /ImaxGly.
Setting [9] is: pEC50, Table 3, nonsense suppression.

For `NCCS(=O)(=O)O` [Tau, taurine], the “% ImaxTau /ImaxGly” value in experiment [1] (Table 3, n = 4) came to 43 ± 5%; in experiment [2] (n = 5), 20 ± 1 %; on human GlyR α1 subunit WT (n = 5), 50 ± 4%; at human GlyR α1 subunit WT (n = 5, listed as Taurine), 50%. In addition, the nH is 1.5 ± 0.3 in experiment [1] (Table 3, n = 4); 1.8 ± 0.3 in experiment [3] (Table 3, n = 3); 2.1 ± 0.2 in experiment [4] (Table 3, P146 CFP, n = 3); 2.4 ± 0.6 in experiment [5] (Table 3, n = 3). The EC50 in experiment [1] (n = 4, read-out: EC50) is 1030 µM; in experiment [1] (n = 4, read-out: pEC50 (converted)) it was 1040 µM; in experiment [2] (n = 5, read-out: EC50) it was 1190 µM; in experiment [2] (setting [6]), 1190 µM; in experiment [3] (setting [7]), 757 µM; in experiment [3] (setting [9]), 757 µM. Besides, the EC50 at human GlyR α1 subunit WT (n = 5, read-out: EC50) was 583 µM; at human GlyR α1 subunit WT (setting [6]), 582 µM; in experiment [4], 579 µM; in experiment [5] (setting [7]), 3180 µM; in experiment [5] (setting [9]), 3180 µM. Besides, the “nH (Hill coefficient)” value was 2.2 ± 0.4 in experiment [2] and 1.7 ± 0.3 on human GlyR α1 subunit WT. The Emax in experiment [3] (setting [8]) was determined as 64 ± 7%; in experiment [4] (Table 3, P146 CFP, n = 3, read-out: % ImaxTau /ImaxGly) it was 71 ± 3%; in experiment [5] (setting [8]) it was 18 ± 2%.

For `NCC(=O)O` [Gly, glycine], the nH in experiment [1] (Table 2, n = 6) is recorded as 2.5 ± 0.4; in experiment [1] (Table 3, n = 4) it was 3.2 ± 1.6; in experiment [3] (Table 2, n = 5), 1.9 ± 0.7; in experiment [3] (Table 3, n = 3), 2.7 ± 0.9; in experiment [4] (Table 2, P146 CFP, n = 6), 3.7 ± 0.6; in experiment [4] (Table 3, P146 CFP, n = 3), 3.0 ± 0.5. In addition, the nH amounted to 2.2 ± 0.5 in experiment [5] (Table 2, n = 6) and 3.6 ± 0.2 in experiment [5] (Table 3, n = 3). The “nH (Hill coefficient)” value is on record as 2.2 ± 0.4 in experiment [2] and 2.3 ± 0.5 on human GlyR α1 subunit WT.
